This is an account of results in patent US20070253957A1, “Substituted N-Aryl-1H-Pyrazolo[3,4-B]Quinolin-4-Amines and Analogs as Activators of Caspases and Inducers of Apoptosis” (Cytovia, Inc., priority 2004, published 2007).

As a reminder, the EC50 is the concentration giving half of the maximal effect. For orientation: GI50 means the concentration that inhibits growth by half. Read a high GI50 as lower sensitivity of the cells.

The subject of test [1] is T-47D. In words: Caspase cascade activation assay (N-(Ac-DEVD)-N'-ethoxycarbonyl-R110 fluorogenic substrate) in T-47D cells. Conditions: 24 h incubation; for Caspase Activity Ratio: ratio of net RFU (T=3 h) to that of control samples, 0.16 to 10 μM final; for EC50: sigmoidal dose-response calculation, read-out: Caspase Potency EC50. It counts as cell-based, Human. As for the experimental part: Human breast cancer cell lines T-47D was grown according to media component mixtures designated by American Type Culture Collection+10% FCS (mvitrogen Corporation), in a 5% CO2-95% humidity incubator at 37° C. T-47D and ZR-75-1 cells were maintained at a cell density between 30 and 80% confluency and for HL-60 at a cell density of 0.1 to 0.6×10^6 cells/mL. Cells were harvested at 600×g and resuspended at 0.65×10^6 cells/mL into appropriate media+10% FCS. An aliquot of 45 μL of cells was added to a well of a 96-well microtiter plate containing 5 μL of a 10% DMSO in RPMI-1640 media solution containing 1.6 to 100 μM of 1,3-dimethyl-N-(4-methoxyphenyl)-1H-pyrazolo[3,4-b]quinolin-4-amine or other test compound (0.16 to 10 μM final). An aliquot of 45 μL of cells was added to a well of a 96-well microtiter plate containing 5 μL of a 10% DMSO in RPMI-1640 media solution without test compound as the control sample. The samples were mixed by agitation and then incubated at 37° C. for 24 h in a 5% CO2-95% humidity incubator. After incubation, the samples were removed from the incubator and 50 μL of a solution containing 20 μM of N-(Ac-DEVD)-N′-ethoxycarbonyl-R110 fluorogenic substrate (SEQ ID NO:1) (Cytovia, Inc.; U.S. Pat. No. 6,335,429), 20% sucrose (Sigma), 20 mM DTT (Sigma), 200 mM NaCl (Sigma), 40 mM Na PIPES buffer pH 7.2 (Sigma), and 500 μg/mL lysolecithin (Calbiochem) was added. The samples were mixed by agitation and incubated at room temperature. Using a fluorescent plate reader (Model 1420 Wallac Instruments), an initial reading (T=0) was made about 1-2 min after addition of the substrate solution, employing excitation at 485 nm and emission at 530 nm, to determine the background fluorescence of the control sample. After about 3 h of incubation, the samples were read for fluorescence as above (T=3 h).
The Relative Fluorescence Unit values (RFU) were used to calculate the sample readings as follows: RFU(T=3h)−Control RFU(T=0)=Net RFU(T=3h)
The activity of caspase cascade activation was determined by the ratio of the net RFU value for 1,3-dimethyl-N-(4-methoxyphenyl)-1H-pyrazolo[3,4-b]quinolin-4-amine to that of control samples. The EC50 (nM) was determined by a sigmoidal dose-response calculation (Prism 2.0, GraphPad Software Inc.).

A further test has as its system MX1. Description: Inhibition of cell proliferation (GI50), CellTiter 96 AQUEOUS One Solution, MX1 cells. It counts as cell-based. The conditions noted are these: 48 h incubation, dose for 50% inhibition of cell proliferation. As for the experimental part:
(§1) T-47D and MX1 cells were grown and harvested as in Example 49. An aliquot of 90 μL of cells (2.2×10^4 cells/mL) was added to a well of a 96-well micrQtiter plate containing 10 μl of a 10% DMSO in RPMI-1640 media solution containing […] to 100 μM of 1,3-dimethyl-N-(4-methoxyphenyl)-1H-pyrazolo[3,4-b]quinolin-4-amine (0.1 nM to 10 μM final) or other test compound. An aliquot of 90 μL of cells was added to a well of a 96-well microtiter plate containing 10 μL of a 10% DMSO in RPMI-1640 media solution without compound as the control sample for maximal cell proliferation (AMax). The samples were mixed by agitation and then incubated at 37° C. for 48 h in a 5% CO2-95% humidity incubator. After incubation, the samples were removed from the incubator and 20 μL of CellTiter 96 AQUEOUS One Solution Cell Proliferation™ reagent (Promega) was added. The samples were mixed by agitation and incubated at 37° C. for 2-4 h in a 5% CO2-95% humidity incubator. Using an absorbance plate reader (Model 1420 Wallac Instruments), an initial reading (T=0) was made about 1-2 min after addition of the solution, employing absorbance at 490 nm. This determines the possible background absorbance of the test compounds. No absorbance for 1,3-dimethyl-N-(4-methoxyphenyl)-1H-pyrazolo[3,4-b]quinolin-4-amine was found at 490 nm. After the 2-4 h incubation, the samples were read for absorbance as above (ATest).
(§2) Baseline for GI50 (dose for 50% inhibition of cell proliferation) of initial cell numbers were determined by adding an aliquot of 90 μL of cells or 90 μL of media, respectively, to wells of a 96-well microtiter plate containing 10 μL of a 10% DMSO in RPMI-1640 media solution. The samples were mixed by agitation and then incubated at 37° C. for 0.5 h in a 5% CO2-95% humidity incubator. After incubation, the samples were removed from the incubator and 20 μL of CellTiter 96 AQUEOUS One Solution Cell Proliferation™ reagent (Promega) was added. The samples were mixed by agitation and incubated at 37° C. for 2-4 h in a 5% CO2-95% humidity incubator. Absorbance was read as above, (Astart) defining absorbance for initial cell number used as baseline in GI50 determinations.
(§3) GI50 (dose for 50% inhibition of cell proliferation) is the concentration where [(ATest−Astart)/(AMax−AStart)]=0.5.

Test [2] deals with T-47D. In words: Inhibition of cell proliferation (GI50), CellTiter 96 AQUEOUS One Solution, T-47D cells. Conditions: 48 h incubation, dose for 50% inhibition of cell proliferation. The format is cell-based, Human. As for the experimental part: as §1, §2, §3

Like-named read-outs stand apart in the source and are kept apart here.

Regarding `CCC(=O)c1ccc(Nc2c3cccc(N)c3nc3c2c(C)nn3C)cc1` [Example 38, 8-Amino-1,3-dimethyl-N-(4-propionylphenyl)-1H-pyrazolo[3,4-b]quinolin-4-amine], in the test on T-47D [1], the “Caspase Activity Ratio” value was determined as 5.1. The 50% effective concentration (EC50) in the test with T-47D [1] (Homo sapiens, T47D) is 0.706 µM. The GI50 was determined as 2.21 µM with MX1 (Homo sapiens) and 0.803 µM in the test with T-47D [2] (Homo sapiens, T47D).
Turning to `CC(=O)c1ccc(Nc2c3c(nc4ccccc24)CCC3)cc1` [Example 11, N-(4-Acetylphenyl)-2,3-dihydro-1H-cyclopenta[b]quinolin-9-amine], the “Caspase Activity Ratio” value in the test on T-47D [1] is given as 9.4. Also, the EC50 with T-47D [1] (Homo sapiens, T47D) was 0.444 µM. The GI50 in the test on MX1 (Homo sapiens) worked out at 0.3 µM; in the test on T-47D [2] (Homo sapiens, T47D), 0.3 µM.
In the case of `CCC(=O)c1ccc(Nc2c3ccccc3nc3c2c(C)nn3C)cc1` [Example 23, 1,3-Dimethyl-N-(4-propionylphenyl)-1H-pyrazolo[3,4-b]quinolin-4-amine], the “Caspase Activity Ratio” value with T-47D [1] was 4.2. For the same molecule, the EC50 in the test on T-47D [1] (Homo sapiens, T47D) is 0.043 µM. Further, the GI50 with MX1 (Homo sapiens) came out at 0.03 µM; with T-47D [2] (Homo sapiens, T47D) it was 0.03 µM.
Take `COc1ccc(Nc2c3ccccc3nc3c2c(C)nn3C)cc1` [Compound A, 1,3-Dimethyl-N-(4-methoxyphenyl)-1H-pyrazolo[3,4-b]quinolin-4-amine]: the “Caspase Activity Ratio” value with T-47D [1] is recorded as 3.8. The EC50 in the test with T-47D [1] (Homo sapiens, T47D) is 0.793 µM. The GI50 was determined as 0.8 µM with MX1 (Homo sapiens) and 0.809 µM with T-47D [2] (Homo sapiens, T47D).
On the same counts, the results for `COc1ccc(N(C)c2c3ccccc3nc3c2c(C)nn3C)cc1` [Example 31, 1,3-Dimethyl-N-methyl-N-(4-methoxyphenyl)-1H-pyrazolo[3,4-b]quinolin-4-amine] are 9.7, 4.1 µM, above 10 µM and 6.1 µM.
The like results for `CCC(=O)c1ccc(Nc2c3ccccc3nc3c2c(C)nn3CC)cc1` [Example 42, 1-Ethyl-3-methyl-N-(4-propionylphenyl)-1H-pyrazolo[3,4-b]quinolin-4-amine] were, in that order, 6.7, 0.173 µM, 0.1 µM and 0.1 µM.
On the same counts, the results for `CSc1ccc(Nc2c3ccccc3nc3c2c(C)nn3C)cc1` [Example 33, 1,3-Dimethyl-N-(4-methylthiophenyl)-1H-pyrazolo[3,4-b]quinolin-4-amine] are 3.6, 0.667 µM, 0.5 µM and 0.5 µM.
As to `CCC(O)c1ccc(Nc2c3ccccc3nc3c2c(C)nn3C)cc1` (stereo not shown) [Example 43, N-(4-(1-Hydroxypropyl)-phenyl)-1,3-dimethyl-1H-pyrazolo[3,4-b]quinolin-4-amine], the “Caspase Activity Ratio” value in the test with T-47D [1] stood at 3.7. In addition, the EC50 with T-47D [1] (Homo sapiens, T47D) is 0.183 µM. Besides, the GI50 in the test with MX1 (Homo sapiens) was 1.67 µM; with T-47D [2] (Homo sapiens, T47D) it was 0.14 µM.
On the same counts, the results for `COC(=O)c1ccc(N(C)c2c3ccccc3nc3c2c(C)nn3C)cc1` [Example 30, 1,3-Dimethyl-N-methyl-N-(4-methoxycarbonylphenyl)-1H-pyrazolo[3,4-b]quinolin-4-amine] are 6.6, 2.85 µM, 4 µM and 4.57 µM.
As to `CC(=O)c1ccc(Nc2c3cccc(C)c3nc3c2c(C)nn3C)cc1` [Example 29, N-(4-Acetylphenyl)-1,3,8-trimethyl-1H-pyrazolo[3,4-b]quinolin-4-amme], in the test with T-47D [1], the “Caspase Activity Ratio” value stood at 4.2 and the half-maximal effective concentration (EC50) is 0.663 µM. The molecule further showed a GI50 in the test with MX1 of 0.6 µM. This molecule also had a GI50 with T-47D [2] of 0.399 µM.
Turning to `CCC(=O)c1ccc(Nc2c3cccc([N+](=O)[O-])c3nc3c2c(C)nn3C)cc1` [Example 37, 1,3-Dimethyl-8-nitro-N-(4-propionylphenyl)-1H-pyrazolo[3,4-b]quinolin-4-amine], in the test with T-47D [1], the “Caspase Activity Ratio” value was determined as 4.2. In addition, in the test with T-47D [1] (Homo sapiens, T47D), the EC50 was 0.435 µM. Also, the GI50 in the test with MX1 (Homo sapiens) was found to be 0.9 µM; in the test on T-47D [2] (Homo sapiens, T47D) it was 0.546 µM.
The like results for `CC(=O)c1ccc(Nc2c3cc(C)ccc3nc3c2c(C)nn3C)cc1` [Example 26, N-(4-Acetylphenyl)-1,3,6-trimethyl-1H-pyrazolo[3,4-b]quinolin-4-amine] were, in that order, 1.1, above 10 µM, above 10 µM and above 10 µM.
For `COC(=O)c1ccc(Nc2c3ccccc3nc3c2c(C)nn3C)cc1` [Example 4, 1,3-Dimethyl-N-(4-(methoxycarbonyl)phenyl)-1H-pyrazolo[3,4-b]quinolin-4-amine], the “Caspase Activity Ratio” value in the test with T-47D [1] amounted to 8.6. In addition, in the test on T-47D [1] (Homo sapiens, T47D), the EC50 is 0.333 µM. The GI50 came out at 0.5 µM in the test with MX1 (Homo sapiens) and 0.519 µM in the test with T-47D [2] (Homo sapiens, T47D).
